Laboratory results taken from paper PMC6085107 (Pain, 2018).
“Also recorded” adds a separate entry of the source.

Legend:
NMDA-induced cell death = conditions: ref [29]; cited from earlier work
[1] = test system: paclitaxel-induced neuropathic pain; conditions: administered acutely; ref [27]; cited from earlier work
primary cortical neurons = experiment: Glutamate/glycine-induced cell death in primary cortical neurons; type: cell-based, Sprague-Dawley rat; conditions: MK-801 20 μM; n = 3–4; p < 0.01 for each comparison
[2] = test system: mechanical paw withdrawal thresholds, C57BL/6J mice; experiment: PSNL-induced mechanical allodynia; type: in vivo
[3] = test system: cold response times, C57BL/6J mice; experiment: PSNL-induced cold allodynia; type: in vivo
p38 MAPK = conditions: rats, cited from earlier work; for p38 MAPK activation in microglia: 5 minutes post treatment, returned to basal levels after 20 minutes, ref [46]
[4] = test system: mechanical paw withdrawal thresholds, C57BL/6J mice; experiment: Paclitaxel-induced mechanical allodynia; type: in vivo; conditions: paclitaxel 4 mg/kg i.p. on day 0, 2, 4, 6; starting on day 7 and ongoing on day 15; p < 0.0001
[5] = test system: cold response times, C57BL/6J mice; experiment: Paclitaxel-induced cold allodynia; type: in vivo
[6] = test system: p53 phosphorylated at Ser15; experiment: Western blot pSer15-p53 in lumbar spinal cord; type: in vivo, mouse; conditions: paclitaxel 4 mg/kg i.p. on day 0, 2, 4, 6, n = 5, p = 0.002
ERK1/2 = experiment: Western blot pERK1/2 in lumbar spinal cord; type: in vivo, mouse; conditions: n = 5
[7] = target: His-nNOS1-299 and GST-NOS1AP400-506 (Homo sapiens, UniProt P29475); experiment: AlphaScreen nNOS-NOS1AP binding disruption; conditions: 1X PBS, BSA (1mg/mL), Tween-20 (0.1%), 0–200 μM, n = 4–9
Chain of His-nNOS1-299 and GST-NOS1AP400-506 (P29475 1-299): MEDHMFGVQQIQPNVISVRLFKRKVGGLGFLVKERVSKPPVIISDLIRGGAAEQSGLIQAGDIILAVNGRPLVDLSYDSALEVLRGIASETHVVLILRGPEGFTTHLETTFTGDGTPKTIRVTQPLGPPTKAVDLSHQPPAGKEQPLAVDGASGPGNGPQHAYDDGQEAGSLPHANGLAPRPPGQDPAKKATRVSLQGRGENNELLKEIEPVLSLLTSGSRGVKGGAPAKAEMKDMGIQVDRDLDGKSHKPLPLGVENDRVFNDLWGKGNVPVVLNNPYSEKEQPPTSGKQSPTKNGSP

nNOS = conditions: ref [6], [29]; cited from earlier work
His-nNOS_(1-299) = His-nNOS_(1-299) (UniProt P29476-1 1-299); experiment: AlphaScreen or HTRF
Chain of His-nNOS_(1-299) (P29476 1-299): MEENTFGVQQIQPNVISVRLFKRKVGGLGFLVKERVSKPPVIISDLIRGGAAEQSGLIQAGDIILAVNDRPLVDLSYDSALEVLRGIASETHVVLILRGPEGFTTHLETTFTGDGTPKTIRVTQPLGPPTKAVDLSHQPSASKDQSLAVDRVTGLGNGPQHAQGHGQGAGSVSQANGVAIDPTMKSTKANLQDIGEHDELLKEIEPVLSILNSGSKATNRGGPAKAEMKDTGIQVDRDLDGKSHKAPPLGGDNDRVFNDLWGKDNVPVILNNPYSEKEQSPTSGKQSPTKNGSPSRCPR

[8] = test system: NR1 and NR2B; astrocytes and microglia in the lumbar spinal cord; conditions: direct intrathecal injections; ref [2]; cited from earlier work

## Oc1c(Cl)cc(Cl)cc1CNc1ccc2n[nH]nc2c1 [IC87201]
NMDA-induced cell death
  NMDAR-evoked nNOS-NOS1AP association/p38 MAPK-dependent cell death: blocked
[1]
  suppression of paclitaxel-induced neuropathic pain: efficacious in suppressing paclitaxel-induced neuropathic pain

## C[C@]12N[C@H](Cc3ccccc31)c1ccccc12 [MK-801]
Primary cortical neurons
  cell death vs all other groups exposed to glutamate/glycine: Cell death was lower
[2]; MK-801 5 nmol i.t. once daily, p < 0.001 for each comparison
  sustained mechanical efficacy, day 4–8, repeated dosing, PSNL: similarly increased mechanical paw withdrawal thresholds relative to saline (i.t.) or TAT-GESVΔ1 (i.t.) with sustained efficacy
[3]; MK-801 5 nmol i.t. once daily, 8 consecutive days, n = 5–10, p = 0.072
  cold sensitivity vs saline, repeated dosing, PSNL: approached significance

## CN[C@H](CC(=O)O)C(=O)O [NMDA, N-methyl-D-aspartate]
p38 MAPK; administration directly to the spinal cord, ref [45]
  spinal p38 MAPK activation: induced p38 MAPK activation

## CC(=O)O[C@H]1C(=O)[C@@]2(C)[C@H]([C@H](OC(=O)c3ccccc3)[C@]3(O)C[C@H](OC(=O)[C@H](O)[C@@H](NC(=O)c4ccccc4)c4ccccc4)C(C)=C1C3(C)C)[C@]1(OC(C)=O)CO[C@@H]1C[C@@H]2O [Paclitaxel]
[4]
  mechanical paw withdrawal thresholds after paclitaxel vs vehicle: lowered mechanical paw withdrawal thresholds
[5]; paclitaxel 4 mg/kg i.p. on day 0, 2, 4, 6, starting on day 7 and ongoing on day 15, p < 0.0001
  cold response times after paclitaxel vs vehicle: increased cold response times
[6]
  pSer15-p53 levels, paclitaxel-treated vs vehicle-treated mice: increased lumbar spinal cord levels of pSer15-p53
ERK1/2; paclitaxel 4 mg/kg i.p. on day 0, 2, 4, 6, lumbar spinal cord, saline i.t., p < 0.0001
  pERK1/2 levels, paclitaxel-treated vs cremophor-vehicle treated mice: elevated pERK1/2 levels

## O=C(O)c1ccc(NCc2cc(Cl)cc(Cl)c2O)cc1O [ZL006]
[1]
  suppression of paclitaxel-induced neuropathic pain: efficacious in suppressing paclitaxel-induced neuropathic pain

## GRKKRRQRRR [TAT]
[7]
  disruption of nNOS-NOS1AP binding: did not interfere with the binding between His-nNOS1-299 and GST-NOS1AP400-506

## GRKKRRQRRRGESVYAGQW [TAT-cp4GESV]
[7]
  disruption of nNOS-NOS1AP binding: Neither TAT-cp4GESV nor TAT-GESVΔ1 disrupted the interactions; also recorded: Neither TAT-GESVΔ1 nor TAT-cp4GESV disrupted the binding
NMDA-induced cell death
  NMDA-induced cell death: did not disrupt NMDA activation-induced cell death

## GRKKRRQRRRYAGQWGES [TAT-GESVΔ1]
[7]
  disruption of nNOS-NOS1AP binding: Neither TAT-cp4GESV nor TAT-GESVΔ1 disrupted the interactions; also recorded: Neither TAT-GESVΔ1 nor TAT-cp4GESV disrupted the binding
[5]; 10 nmol i.t., n = 6, TAT-GESV p = 0.039, TAT-GESVΔ1 p = 1
  cold response times vs saline (i.t.) in paclitaxel-treated mice: did not differ from saline
[2]; 10 nmol i.t., acute, n = 6–10, TAT-GESV p < 0.05, TAT-GESVΔ1 p = 1
  ipsilateral paw withdrawal thresholds vs saline, PSNL: did not differ
[3]; 10 nmol i.t. once daily, 8 consecutive days, n = 5–10, TAT-GESV vs saline p < 0.05, TAT-GESVΔ1 p > 0.25 for each comparison
  cold responsiveness, repeated dosing, PSNL: did not reliably alter cold responsiveness relative to saline (i.t.), MK-801 (i.t.) or TAT-GESV (i.t.)
[3]; 10 nmol i.t., acute, n = 6–10, TAT-GESV p < 0.01, TAT-GESVΔ1 p = 1
  ipsilateral cold-response times vs saline, PSNL: did not differ
[3]; acute i.t., p = 0.39 (dose), p = 0.491 (drug), p = 0.882 (interaction)
  contralateral cold responsiveness, PSNL or sham: neither TAT-GESV nor TAT-GESVΔ1 altered mechanical or cold responsiveness in the paw contralateral to PSNL or sham surgery
ERK1/2; 5 nmol i.t., 20 min post injection, p > 0.4
  pERK1/2 elevation vs saline (i.t.), paclitaxel-treated mice: neither TAT-GESV nor TAT-GESVΔ1 (5 nmol, i.t.) altered pERK1/2 elevation

## formalin
p38 MAPK
  p38 MAPK activation in microglia: induced p38 MAPK activation in microglia 5 minutes post treatment

## substance P
p38 MAPK
  p38 MAPK activation in microglia: induced p38 MAPK activation in microglia 5 minutes post treatment

B1: nNOS1-99: nNOS fragment disrupting nNOS-NOS1AP interactions (protein, UniProt P29475 1-99, looked up, fragment)
chain: MEDHMFGVQQIQPNVISVRLFKRKVGGLGFLVKERVSKPPVIISDLIRGGAAEQSGLIQAGDIILAVNGRPLVDLSYDSALEVLRGIASETHVVLILRG
nNOS
  enzymatic activity of nNOS or production of NO: does not alter the enzymatic activity of nNOS or the production of NO

## GRKKRRQRRRYAGQWGESV [L-TAT-GESV]
His-nNOS_(1-299)
  IC50: 8.47 µM

B2: CCL-1: chemokines C-C motif ligand 1 (protein, UniProt P22362 24-96, looked up)
C-C motif chemokine 1: KSMQVPFSRCCFSFAEQEIPLRAILCYRNTSSICSNEGLIFKLKRGKEACALDTVGWVQRHRKMLRHCPSKRK
[8]
  NR1 and NR2B phosphorylation, glial activation in lumbar spinal cord: induced phosphorylation of NR1 and NR2B and activated astrocytes and microglia in the lumbar spinal cord
